Values of other authors as cited in patent US20100284985A1, “Composition” (Danisco A/S, priority 2007, published 2010).

Tested on: common food spoilage yeasts and moulds
Conditions: most strains of common food spoilage yeasts and moulds; cited from earlier work

C[C@@H]1C/C=C/C=C/C=C/C=C/[C@H](O[C@@H]2O[C@H](C)[C@@H](O)[C@H](N)[C@@H]2O)C[C@@H]2O[C@](O)(C[C@@H](O)C[C@H]3O[C@@H]3/C=C/C(=O)O1)C[C@H](O)[C@H]2C(=O)O [natamycin]
concentrations inhibiting most strains: 1-15 ppm
